Experimental data from PubChem BioAssay AID248 (DTP/NCI, 2004).
Where “and” joins values, the source holds several entries; their conditions need not be identical. Equal values may be shown once. Toxic doses and inconclusive results are not listed. Cut-off read from the data, not from the text of the source: active = T/C of 150% or more; inactive = T/C below 125%.

Tested on: L1210 leukemia ip in BDF1 mice, survival T/C
Assay: NCI In Vivo Anticancer Drug Screen. Data for tumor model L1210 Leukemia (intraperitoneal) in B6D2F1 (BDF1) mice
Details: endpoint: mean survival time, higher = longer survival
Outline: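 Antitumor effect is assessed in tumor-bearing animals. Survival in the compound arm is compared with a vehicle-dosed control arm and expressed as their quotient.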

[1] = dose: 25.0 mg/kg/injection, schedule: Q04DX003 (ip), vehicle: Klucel (hydroxypropylcellulose) (HPC)
[2] = dose: 50.0 mg/kg/injection, schedule: Q04DX003 (ip), vehicle: Klucel (hydroxypropylcellulose) (HPC)
[3] = dose: 100.0 mg/kg/injection, schedule: Q04DX003 (ip), vehicle: Klucel (hydroxypropylcellulose) (HPC)
[4] = dose: 100.0 mg/kg/injection, schedule: Q01DX009 (ip), vehicle: Klucel (hydroxypropylcellulose) (HPC)
[5] = dose: 200.0 mg/kg/injection, schedule: Q01DX009 (ip), vehicle: Klucel (hydroxypropylcellulose) (HPC)
[6] = dose: 200.0 mg/kg/injection, schedule: Q04DX003 (ip), vehicle: Klucel (hydroxypropylcellulose) (HPC)
[7] = dose: 400.0 mg/kg/injection, schedule: Q01DX009 (ip), vehicle: Klucel (hydroxypropylcellulose) (HPC)
[8] = dose: 400.0 mg/kg/injection, schedule: Q04DX003 (ip), vehicle: Klucel (hydroxypropylcellulose) (HPC)
[9] = dose: 100.0 mg/kg/injection, schedule: Q04DX002 (ip), vehicle: saline with Tween-80
[10] = dose: 200.0 mg/kg/injection, schedule: Q04DX002 (ip), vehicle: saline with Tween-80
[11] = dose: 100.0 mg/kg/injection, schedule: Q01DX001 (ip), vehicle: saline
[12] = dose: 200.0 mg/kg/injection, schedule: Q01DX001 (ip), vehicle: saline

Measured: T/C

O=C(Nc1ccccc1F)Sc1c(Cl)c(Cl)nc(Cl)c1Cl
inactive: dose: 25.0 mg/kg/injection, schedule: Q01DX009 (ip), vehicle: Klucel (hydroxypropylcellulose) (HPC) 96 % of control and 101 % of control | [1] 105 % of control | dose: 50.0 mg/kg/injection, schedule: Q01DX009 (ip), vehicle: Klucel (hydroxypropylcellulose) (HPC) 94 % of control and 101 % of control | [2] 102 % of control | dose: 100.0 mg/kg/injection, schedule: Q04DX002 (ip), vehicle: Klucel (hydroxypropylcellulose) (HPC) 101 % of control and 107 % of control | [3] 113 % of control | dose: 200.0 mg/kg/injection, schedule: Q04DX002 (ip), vehicle: Klucel (hydroxypropylcellulose) (HPC) 96 % of control and 106 % of control | dose: 400.0 mg/kg/injection, schedule: Q04DX002 (ip), vehicle: Klucel (hydroxypropylcellulose) (HPC) 103 % of control and 115 % of control

COC(=O)C(Cc1c[nH]c2ccccc12)[N+](C)(C)C (stereo unspecified)
inactive: dose: 35.0 mg/kg/injection, schedule: Q01DX Z (ip), vehicle: saline 95 % of control | dose: 50.0 mg/kg/injection, schedule: Q01DX Z (ip), vehicle: saline 97 % of control

COc1ccc(Nc2cc(N)nc(N)n2)cc1
inactive: dose: 25.0 mg/kg/injection, schedule: Q01DX Z (ip), vehicle: methylcellulose (MC) 93 % of control | dose: 50.0 mg/kg/injection, schedule: Q01DX Z (ip), vehicle: methylcellulose (MC) 87 % of control

CCC1CC2c3cc(OC)c(OC)cc3CCN2CC1(O)Cc1ccncc1 (stereo unspecified)
inactive: dose: 100.0 mg/kg/injection, schedule: Q04DX003 (ip), vehicle: carboxymethylcellulose (CMC) 100 % of control | dose: 200.0 mg/kg/injection, schedule: Q04DX003 (ip), vehicle: carboxymethylcellulose (CMC) 104 % of control

CSc1ccc(NC(=O)Nc2cccc(O)c2)cc1
inactive: [4] 101 % of control | [3] 101 % of control | [5] 103 % of control | [6] 106 % of control | [7] 101 % of control | [8] 98 % of control

CCOC(=O)c1ccc(NC(=S)NC(=O)c2ccccc2)cc1
inactive: [9] 100 % of control | [10] 94 % of control

CCCCCCCCCCCC(c1ccccc1)N(C)C (stereo unspecified)
inactive: dose: 50.0 mg/kg/injection, schedule: Q01DX001 (ip), vehicle: saline 98 % of control | [11] 93 % of control | [12] 93 % of control | dose: 400.0 mg/kg/injection, schedule: Q01DX001 (ip), vehicle: saline 93 % of control

CC(=O)CC(=O)C(F)(F)F.CC(=O)CC(=O)C(F)(F)F.[O]=[V]
inactive: [1] 100 % of control | [2] 107 % of control | [3] 96 % of control

COc1ccc(Cl)cc1NC(=O)Nc1ccc(Nc2ccccc2)cc1
inactive: [4] 104 % of control | [3] 101 % of control | [5] 101 % of control | [6] 98 % of control | [7] 86 % of control | [8] 97 % of control

CC1CC(C)NC(=S)N1 (stereo unspecified)
inactive: dose: 50.0 mg/kg/injection, schedule: Q04DX002 (ip), vehicle: saline with Tween-80 98 % of control | [9] 102 % of control | [10] 98 % of control

O=C(NCCCl)Sc1ccc(Cl)cc1
inactive: dose: 20.0 mg/kg/injection, schedule: Q04DX003 (ip), vehicle: Klucel (hydroxypropylcellulose) (HPC) 92 % of control | dose: 40.0 mg/kg/injection, schedule: Q04DX003 (ip), vehicle: Klucel (hydroxypropylcellulose) (HPC) 90 % of control | dose: 80.0 mg/kg/injection, schedule: Q04DX003 (ip), vehicle: Klucel (hydroxypropylcellulose) (HPC) 93 % of control

Cc1ccc(C)c(CCC(C)CCCC(C)C)c1 (stereo unspecified)
inactive: [11] 97 % of control | [12] 104 % of control

CC(=O)OCC1OC(Oc2ccccc2)C(OC(C)=O)C(OC(C)=O)C1OC(C)=O (stereo unspecified)
inactive: dose: 100.0 mg/kg/injection, schedule: Q01DX001 (ip), vehicle: saline with Tween-80 101 % of control | dose: 100.0 mg/kg/injection, schedule: Q01DX009 (ip), vehicle: saline with Tween-80 101 % of control | dose: 200.0 mg/kg/injection, schedule: Q01DX001 (ip), vehicle: saline with Tween-80 96 % of control | dose: 200.0 mg/kg/injection, schedule: Q01DX009 (ip), vehicle: saline with Tween-80 95 % of control | dose: 400.0 mg/kg/injection, schedule: Q01DX001 (ip), vehicle: saline with Tween-80 101 % of control | dose: 400.0 mg/kg/injection, schedule: Q01DX009 (ip), vehicle: saline with Tween-80 96 % of control

OC(CCN1CCCCC1)(c1cccs1)C(O)(CCN1CCCCC1)c1cccs1 (stereo unspecified)
inactive: [11] 97 % of control | [12] 90 % of control
